≈ marks a conversion by molar mass, not a printed value.
What was measured:
Experiment in all cases: ≥ marks a high value that may be exact or a test limit, other limits are often not marked, values filed in µg/mL are converted to µM
[1] = tested on: Escherichia coli ATCC 25922
[2] = tested on: Pseudomonas aeruginosa ATCC 27853
Escherichia coli = tested on: Escherichia coli
Staphylococcus aureus = tested on: Staphylococcus aureus
[3] = tested on: Staphylococcus aureus ATCC 25923

Row | MIC [1] | MIC [2] | MIC (Escherichia coli) | MIC (Staphylococcus aureus) | MIC [3] | SMILES
1 | 3.72 µM (≈ 4 µg/mL) |  |  |  |  | CC(C)C[C@H](NC(=O)[C@H](CCC(N)=O)NC(=O)[C@H](CCCCN)NC(=O)[C@H](CCCN=C(N)N)NC(=O)[C@H](Cc1ccccc1)NC(=O)[C@H](C)N)C(=O)N[C@@H](CCCCN)C(=O)N[C@@H](Cc1c[nH]c2ccccc12)C(=O)O [AFRKQLKW]
2 | 8 µM (≈ 25.1 µg/mL) |  |  |  |  | CC[C@H](C)[C@H](NC(=O)[C@H](CO)NC(=O)[C@H](Cc1ccccc1)NC(=O)[C@H](CC(C)C)NC(=O)[C@H](C)N)C(=O)N[C@@H](CC(C)C)C(=O)N[C@@H](CCCN=C(N)N)C(=O)NCC(=O)N[C@@H](CC(C)C)C(=O)N[C@@H](CCCCN)C(=O)N[C@@H](CCCCN)C(=O)N[C@@H](CC(C)C)C(=O)NCC(=O)N[C@@H](CC(N)=O)C(=O)N[C@@H](CCSC)C(=O)NCC(=O)N[C@@H](CCC(N)=O)C(=O)N[C@@H](C)C(=O)N[C@@H](Cc1ccccc1)C(=O)N[C@H](C(=O)N[C@@H](CC(N)=O)C(=O)N[C@H]1CSSC[C@@H](C(=O)O)NC(=O)[C@H](CCCCN)NC(=O)[C@H](CCCCN)NC(=O)[C@H](Cc2ccc(O)cc2)NC(=O)[C@H]([C@@H](C)CC)NC(=O)[C@H](CCCCN)NC1=O)C(C)C [ALFSILRGLKKLGNMGQAFVNCKIYKKC]
3 |  | 0.5 µM (≈ 1.48 µg/mL) |  |  |  | CC[C@H](C)[C@H](NC(=O)[C@H](CCCCN)NC(=O)[C@@H](N)Cc1ccccc1)C(=O)N[C@@H](CCCCN)C(=O)N[C@@H](C)C(=O)N[C@@H](CO)C(=O)N[C@@H](CCCCN)C(=O)N[C@@H](CCCCN)C(=O)N[C@@H](CC(C)C)C(=O)N[C@@H](CC(C)C)C(=O)N[C@@H](CCCCN)C(=O)N[C@@H](CCCCN)C(=O)N[C@H](C(=O)NCC(=O)N[C@@H](CCCCN)C(=O)NCC(=O)N[C@@H](C)C(=O)N[C@@H](CC(C)C)C(=O)NCC(=O)N[C@@H](C)C(=O)N[C@H](C(=O)N[C@@H](C)C(=O)N[C@@H](CCCCN)C(=O)N[C@@H](C)C(=O)N[C@@H](CC(C)C)C(=O)N[C@@H](C)C(=O)N[C@@H](CCC(N)=O)C(=O)N[C@@H](CCC(N)=O)C(=O)N[C@@H](C)C(=O)O)C(C)C)C(C)C [FKIKASKKLLKKVGKGALGAVAKALAQQA]
4 | 3.1 µM (≈ 8.32 µg/mL) |  |  |  |  | CC[C@H](C)[C@H](NC(=O)CN)C(=O)NCC(=O)N[C@@H](CCCCN)C(=O)N[C@@H](Cc1ccccc1)C(=O)N[C@@H](CC(C)C)C(=O)N[C@@H](Cc1cnc[nH]1)C(=O)N[C@@H](CO)C(=O)N[C@@H](C)C(=O)N[C@@H](CCCCN)C(=O)N[C@@H](CCCCN)C(=O)N[C@@H](Cc1ccccc1)C(=O)NCC(=O)N[C@@H](CCCCN)C(=O)N[C@@H](C)C(=O)N[C@@H](Cc1ccccc1)C(=O)N[C@H](C(=O)NCC(=O)N[C@@H](CCC(=O)O)C(=O)N[C@H](C(=O)N[C@@H](CCSC)C(=O)N[C@@H](CC(N)=O)C(=O)N[C@@H](CO)C(=O)NCC(=O)NCC(=O)N[C@@H](CS)C(N)=O)[C@@H](C)CC)C(C)C [GIGKFLHSAKKFGKAFVGEIMNSGGC]
5 | 16 µM (≈ 47.4 µg/mL) |  |  |  |  | CC[C@H](C)[C@H](NC(=O)CN)C(=O)N[C@@H](CCSC)C(=O)N[C@@H](CC(=O)O)C(=O)N[C@@H](CO)C(=O)N[C@H](C(=O)N[C@@H](CCCCN)C(=O)N[C@@H](CC(N)=O)C(=O)N[C@H](C(=O)N[C@@H](C)C(=O)N[C@@H](CCCCN)C(=O)N[C@@H](CC(N)=O)C(=O)N[C@H](C(=O)N[C@@H](C)C(=O)NCC(=O)N[C@@H](CCC(N)=O)C(=O)N[C@@H](CC(C)C)C(=O)N[C@@H](CC(C)C)C(=O)N[C@@H](CC(=O)O)C(=O)N[C@@H](CCCCN)C(=O)N[C@@H](CC(C)C)C(=O)N[C@@H](CCCCN)C(=O)N[C@H]1CSSC[C@@H](C(=O)O)NC(=O)CNC(=O)[C@H]([C@@H](C)O)NC(=O)[C@H]([C@@H](C)CC)NC(=O)[C@H](CCCCN)NC1=O)[C@@H](C)CC)C(C)C)C(C)C [GIMDSVKNVAKNIAGQLLDKLKCKITGC]
6 |  |  | 80 µM (≈ 190 µg/mL) | 80 µM (≈ 190 µg/mL) |  | CSCC[C@H](NC(=O)CNC(=O)[C@H](C)NC(=O)[C@H](CCCCN)NC(=O)[C@H](C)NC(=O)[C@H](Cc1ccccc1)NC(=O)[C@H](CCCCN)NC(=O)[C@H](CCCCN)NC(=O)[C@H](CC(C)C)NC(=O)[C@@H](NC(=O)[C@H](CC(=O)O)NC(=O)[C@H](CC(C)C)NC(=O)[C@H](Cc1ccccc1)NC(=O)[C@H](CC(C)C)NC(=O)CN)[C@@H](C)O)C(=O)N[C@@H](CCC(=O)O)C(=O)N[C@@H](C)C(=O)N[C@H](C(=O)N[C@H](C(=O)N[C@@H](CC(N)=O)C(=O)N1CCC[C@H]1C(=O)N[C@@H](CCCCN)C(=O)O)[C@@H](C)O)C(C)C [GLFLDTLKKFAKAGMEAVTNPK]
7 | > 52.9 µM |  |  |  | > 52.9 µM | CC(C)C[C@H](NC(=O)CN)C(=O)N[C@@H](CC(C)C)C(=O)N[C@@H](CCCCN)C(=O)N[C@@H](CCCN=C(N)N)C(N)=O [GLLKR]
8 | 200 µM (≈ 225 µg/mL) |  |  |  |  | CC[C@H](C)[C@H](NC(=O)[C@H](CCCN=C(N)N)NC(=O)[C@@H](NC(=O)[C@H](CC(C)C)NC(=O)[C@H](CC(C)C)NC(=O)CN)[C@@H](C)O)C(=O)N[C@@H](CCCCN)C(=O)N[C@H](C(=O)N[C@@H](CC(C)C)C(=O)N[C@@H](CC(C)C)C(N)=O)[C@@H](C)O [GLLTRIKTLL]
9 | 79.9 µM (≈ 125 µg/mL) |  |  |  | 20 µM (≈ 31.3 µg/mL) | CC[C@H](C)[C@H](NC(=O)[C@H](CC(=O)O)NC(=O)[C@@H](NC(=O)[C@@H](NC(=O)CN)C(C)C)C(C)C)C(=O)N[C@@H](CC(C)C)C(=O)N[C@@H](CCCCN)C(=O)NCC(=O)N[C@@H](C)C(=O)N[C@@H](C)C(=O)N[C@@H](CCCCN)C(=O)N[C@@H](CC(=O)O)C(=O)N[C@@H](CC(C)C)C(=O)N[C@@H](C)C(=O)NCC(=O)N[C@@H](Cc1cnc[nH]1)C(=O)O [GVVDILKGAAKDLAGH]
10 | 47 µM (≈ 63.7 µg/mL) |  |  |  | > 256 µM | C[C@H](NC(=O)[C@H](C)NC(=O)[C@H](CCCCN)NC(=O)[C@H](CCCCN)NC(=O)[C@H](C)NC(=O)[C@H](C)NC(=O)[C@H](CCCCN)NC(=O)[C@H](C)NC(=O)[C@H](C)NC(=O)[C@H](CCCCN)NC(=O)[C@H](CCCCN)NC(=O)[C@H](C)NC(=O)[C@H](C)NC(=O)[C@@H](N)CCCCN)C(N)=O [KAAKKAAKAAKKAA]
11 | > 100 µM | > 100 µM |  |  | > 100 µM | CC(C)C[C@H](NC(=O)[C@H](CCCCN)NC(=O)[C@H](CCCCN)NC(=O)[C@H](C)NC(=O)[C@H](CC(C)C)NC(=O)[C@@H](N)CCCCN)C(=O)N[C@@H](C)C(N)=O [KLAKKLA]
12 | 4 µM (≈ 8.77 µg/mL) | 4 µM (≈ 8.77 µg/mL) |  |  | 4 µM (≈ 8.77 µg/mL) | CC(C)C[C@H](NC(=O)[C@H](CCCCN)NC(=O)CNC(=O)[C@H](CC(C)C)NC(=O)[C@H](CCCCN)NC(=O)[C@H](CCCCN)NC(=O)CNC(=O)[C@H](CC(C)C)NC(=O)[C@H](CCCCN)NC(=O)CNC(=O)[C@H](CC(C)C)NC(=O)[C@H](CCCCN)NC(=O)[C@H](CCCCN)NC(=O)CNC(=O)[C@H](CC(C)C)NC(=O)[C@@H](N)CCCCN)C(=O)NCC(=O)N[C@@H](CCCCN)C(=O)N[C@@H](CCCCN)C(=O)N[C@@H](CC(C)C)C(=O)NCC(N)=O [KLGKKLGKLGKKLGKLGKKLG]
13 |  |  | 3.3 µM (≈ 6.51 µg/mL) |  |  | CC[C@H](C)[C@H](NC(=O)[C@H](Cc1c[nH]c2ccccc12)NC(=O)[C@H](CCCCN)NC(=O)[C@@H]1CCCN1C(=O)[C@H](CC(C)C)NC(=O)[C@@H](N)CCCCN)C(=O)N[C@H](C(=O)N[C@@H](CCCCN)C(=O)N[C@H](C(=O)N[C@H](C(=O)N[C@@H](CC(N)=O)C(=O)N[C@@H](CCCCN)C(=O)N[C@@H](Cc1ccccc1)C(=O)N[C@H](C(=O)N[C@@H](CCCCN)C(=O)N[C@@H](CCCCN)C(=O)O)[C@@H](C)O)C(C)C)[C@@H](C)O)[C@@H](C)CC [KLPKWIIKTVNKFTKK]
14 | 4.4 µM (≈ 10 µg/mL) |  |  |  | 2.2 µM (≈ 5 µg/mL) | CSCC[C@H](NC(=O)[C@H](CCCN=C(N)N)NC(=O)[C@H](Cc1c[nH]c2ccccc12)NC(=O)[C@H](C)NC(=O)[C@H](Cc1c[nH]c2ccccc12)NC(=O)[C@H](CCCN=C(N)N)NC(=O)[C@H](CCCN=C(N)N)NC(=O)[C@H](C)NC(=O)[C@H](CCCCN)NC(=O)[C@H](Cc1ccccc1)NC(=O)[C@H](Cc1c[nH]c2ccccc12)NC(=O)[C@H](C)NC(=O)[C@@H]1CCCN1)C(=O)N[C@@H](CC(C)C)C(=O)N[C@@H](CCCCN)C(=O)N[C@@H](CCCCN)C(=O)N[C@@H](C)C(=O)N[C@@H](C)C(=O)O [PAWFKARRWAWRMLKKAA]
15 | 8.28 µM (≈ 9.99 µg/mL) | 16.6 µM (≈ 20 µg/mL) |  |  | 2.07 µM (≈ 2.5 µg/mL) | NC(=O)[C@H](CCCN=C(N)N)NC(=O)[C@H](Cc1c[nH]c2ccccc12)NC(=O)[C@H](Cc1ccc(O)cc1)NC(=O)[C@H](CCCN=C(N)N)NC(=O)[C@H](Cc1c[nH]c2ccccc12)NC(=O)[C@H](Cc1c[nH]c2ccccc12)NC(=O)[C@@H](N)CCCN=C(N)N [RWWRYWR]
16 | > 100 µM | > 100 µM |  |  |  | CSCC[C@H](NC(=O)[C@H](CCCCN)NC(=O)[C@H](CCCCN)NC(=O)[C@H](CCCCN)NC(=O)[C@H](CCCN=C(N)N)NC(=O)[C@H](CCCN=C(N)N)NC(=O)[C@H](Cc1ccc(O)cc1)NC(=O)[C@@H](N)CCCN=C(N)N)C(=O)N[C@@H](CCCCN)C(=O)N[C@@H](CCCCN)C(=O)N[C@@H](C)C(=O)N[C@@H](CC(C)C)C(=O)N[C@@H](CCC(N)=O)C(=O)N[C@@H](Cc1ccc(O)cc1)C(N)=O [RYRRKKKMKKALQY]
17 | 90.5 µM (≈ 151 µg/mL) |  |  |  |  | CC(C)C[C@H](NC(=O)[C@H](Cc1ccccc1)NC(=O)[C@@H]1CCCN1C(=O)[C@H](Cc1c[nH]c2ccccc12)NC(=O)[C@H](C)NC(=O)[C@H](C)NC(=O)[C@@H]1CCCN1C(=O)[C@H](Cc1ccccc1)NC(=O)[C@H](CCCN=C(N)N)NC(=O)[C@H](CCCN=C(N)N)NC(=O)[C@@H](N)C(C)C)C(=O)N[C@@H](CCCN=C(N)N)C(=O)N[C@@H](CCCN=C(N)N)C(N)=O [VRRFPAAWPFLRR]
18 | 32.2 µM (≈ 50 µg/mL) | 129 µM (≈ 200 µg/mL) |  |  | 32.2 µM (≈ 50 µg/mL) | CSCC[C@H](NC(=O)[C@H](CCCN=C(N)N)NC(=O)[C@H](Cc1c[nH]c2ccccc12)NC(=O)[C@H](C)NC(=O)[C@H](Cc1c[nH]c2ccccc12)NC(=O)[C@H](CCCN=C(N)N)NC(=O)[C@H](CCCN=C(N)N)NC(=O)[C@H](C)NC(=O)[C@H](CCCCN)NC(=O)[C@@H](N)Cc1ccc(O)cc1)C(=O)N[C@@H](CCCCN)C(=O)O [YKARRWAWRMK]

— DBAASP
